Literature values in patent US20220401207A1, “DEVICES, SYSTEMS, AND METHODS FOR TREATMENT OF DUCT OCCLUSION” (Purdue Research Foundation, priority 2021, published 2022).

Tests used:
gall bladder = settings: opossums, CCK infused into the body
[1] = test system: bacteria isolated from bile; settings: number of bile cultures, N-acetyl-cysteine n = 12, co-trimoxazole n = 10
cancerous mass = settings: drug-eluting stent, drug comprises gemcitabine

| Compound | Bile samples cultured with Clostridium species [1] | Bile samples cultured with Enterobacter species [1] | Bile samples cultured with Enterococcus species [1] | Bile samples cultured with K. oxytoca [1] | Bile samples cultured with K. pneumonia [1] | Bile samples cultured with Klebsiella species [1] | also measured |
| --- | --- | --- | --- | --- | --- | --- | --- |
| cholecystokinin [CCK] |  |  |  |  |  |  | Compliance (and thus the pressure) of the gall bladder (gall bladder): drops |
| Co-trimoxazole | 2 | 2 | 6 | 1 | 4 | 5 | Bile samples cultured with Bacteroides fragilis [1]: 1; Bile samples cultured with Candida species [1]: 2; Bile samples cultured with Pseudomonas aeruginosa [1]: 1; Bile samples cultured with Staphylococcus epidermidis [1]: 1 |
| CC(=O)N[C@@H](CS)C(=O)O [N-acetyl-cysteine] | 5 | 6 | 10 | 5 | 3 | 8 | Bile samples cultured with Citrobacter freundii [1]: 1; Bile samples cultured with Proteus species [1]: 1; Bile samples cultured with Escherichia coli ([1]; **p < 0.05): 6; Bile samples cultured with Streptococcus species ([1]; **p < 0.05): 4 |
| Nc1ccn([C@@H]2O[C@H](CO)[C@@H](O)C2(F)F)c(=O)n1 [gemcitabine] |  |  |  |  |  |  | Life span of subjects (cancerous mass): increased life spans; Tumor size (cancerous mass): decreased tumor size |
